Read-outs that look alike come from different tables or passages of the source.
How the values were obtained:
E coli = experiment: Biodistribution in thigh infected mice (E. coli) at 120 min post injection; format: in vivo; conditions: n = 4, 2 h post infection with E coli
Text: The feasibility of the developed PET probe [^68Ga]Ga-H3P2O8 in a mouse model of thigh infection as well as uptake in E. coli has been evaluated. […] The biodistribution of developed PET probe in normal and in thigh infected mice has been assessed (see FIG. 11). […] Micro-PET imaging of normal and thigh-infected mice has also been performed. The site of bacterial infection was evident on micro-PET images (see FIG. 13) with arrows in contrast to the non-infected group of mice. The bacterial site of infection on micro-PET images was confirmed by bacterial culture performed on the biopsied sample. Micro-PET imaging was performed at different time intervals to optimize imaging time.

[1] = test system: Methicillin-resistant Staphylococcus aureus (MRSA); format: in vivo, rats; conditions: for SUV (Average ± SD), Contralateral Tibia / SUV (Average ± SD), Infected Tibia / SUV (Average ± SD), Muscle: Osteomyelitis Foreign Body model
Protocol: (§1) The PET probe [^68Ga]Ga-H3P2O8 was evaluated in methicillin-resistant S. aureus (MRSA) foreign-body osteomyelitis in the left tibia with a stainless steel Kirschner wire (K-wire) implant in male Wister rats, following a previously established protocol [Ref. 17]. Briefly, a 1 cm incision was made on the medial tibia and the bone exposed. A 1.5 mm hole was drilled, 0.01 mL of arachidonic acid (a sclerosing agent) and 0.05 mL of a suspension containing MRSA DRL-6169 at 10^8 cfu/mL was injected into the bone. A 5 mm threaded stainless-steel K-wire was inserted. The hole was closed with dental gypsum and the site closed. After implantation, the muscle and fascia were closed with 3-0 vicryl using simple interrupted sutures. The skin was closed with sterile wound clips and VetBond. The wound was sprayed with Aluspray and Chew Guard. After 7 days of implantation of wire, the animal was put on iron-deficient diet for 7 days and on the day of imaging, the animals were fasted for 4 hours prior to the injection of the PET probe. [^68Ga]Ga-H3P2O8 (32.81±6.28 MBq, n=18) were injected into the rat model via tail vein injection. The rat model was either a normal rat model or an osteomyelitis foreign body rat model or an inflamed foreign body rat model. PET/CT images were acquired at 15 minutes, 30 minutes, 60 minutes, and 120 minutes post-injection using Siemens Inveon MicroPET/CT Scanner (see FIGS. 17, 18, and Table 2).
The acquired PET images were visualized and analyzed for quantifying standardized uptake value (SUV) using image analysis software—MIM 7 software and PMOD. Following final imaging at 120 minutes post-injection, the animal was euthanized, and major organs and infected and inflamed tibia were extracted for gamma counting for ex-vivo biodistribution analysis (see FIG. 22). At the end of last imaging session, rats were euthanized by cardiectomy, and the operated tibia with K-wire or contralateral tibia were aseptically removed. Following removal, tibias were weighed, and Ga-68 radioactivity was counted in 2480 Wizard2 automatic gamma counter for ex-vivo biodistribution assessment. The tibias were then frozen to −80° C. The frozen tibia from each animal was crushed aseptically using a bone pulverizer chilled at −80° C. The crushed tibia without K wire was weighed and vortexed in 1 mL sterile saline. The K wire was also vortexed in 1.0 mL sterile saline separately. The vortexed tibia and K-wire saline suspension were sonicated for 5 minutes. After sonication, 1:10 serial dilutions were prepared in saline and 0.1 mL of each dilution was plated in Trypticase Soy Agar plates with 5% Sheep Blood (TSA II). After 24 hours of incubation at 37° C., the bacterial cultures in tibia suspension and K-wire suspension were quantified. In the 2-week-old osteomyelitis model used in the study, the infected tibia contained 7.00±0.19 log10 cfu/g tibia (n=10) and 5.41±0.40 log10 cfu/K-wire (n=10).

[2] = PET image analysis (SUV) of inflamed tibia in foreign body inflammation rat model; format: in vivo, rats; conditions: each time point up to 120 minutes (FIG. 27)
Protocol: as §1
To assess the preferential uptake of novel [^68Ga]Ga-H3P2O8 PET probe in infection as compared to inflammation, the same surgery and imaging was performed but omitted the MRSA. […] The probe [^68Ga]Ga-H3P2O8 was also successfully used to detect thigh infection caused by E coli in a mouse model.
To further investigate the selectivity of [^68Ga]Ga-H3P2O8 for imaging infection over inflammation, this novel probe was compared to other PET imaging probes, [^68Ga]Ga-Citrate and [^18F]FDG in an inflammation model. In a side-by-side study, all three probes were used to image inflammation (i.e., an inflamed tibia) in an osteomyelitis foreign body rat model.

[3] = test system: Methicillin-resistant Staphylococcus aureus (MRSA); experiment: Ex vivo biodistribution SUV ratios (operated tibia/contralateral tibia), MRSA infection and inflammation; format: in vivo, rats; conditions: 120 minutes post-injection, p<0.05 (FIG. 31)
Protocol: The acquired PET images were visualized and analyzed for quantifying standardized uptake value (SUV) using image analysis software—MIM 7 software and PMOD. Following final imaging at 120 minutes post-injection, the animal was euthanized, and major organs and infected and inflamed tibia were extracted for gamma counting for ex-vivo biodistribution analysis (see FIG. 22). At the end of last imaging session, rats were euthanized by cardiectomy, and the operated tibia with K-wire or contralateral tibia were aseptically removed. Following removal, tibias were weighed, and Ga-68 radioactivity was counted in 2480 Wizard2 automatic gamma counter for ex-vivo biodistribution assessment. The tibias were then frozen to −80° C. […] After 24 hours of incubation at 37° C., the bacterial cultures in tibia suspension and K-wire suspension were quantified. […]
Turning now to FIG. 28, the localization of [^68Ga]Ga-H3P2O8 at an infection was investigated in comparison to [^68Ga]Ga-Citrate and [^18F]FDG. The uptake of [^68Ga]Ga-H3P2O8, [^68Ga]Ga-citrate and [^18F]FDG at 120 minutes post-injection in areas of Methicillin-resistant Staphylococcus aureus (MRSA) infection was determined by ex vivo biodistribution. Additionally, the uptake of [^68Ga]Ga-H3P2O8, [^68Ga]Ga-citrate and [^18F]FDG at 120 minutes post-injection in an inflammation was determined similarly. […]

O=P(O)(O)[O][Ga]1[O]P(=O)(O)[O]1 [[^68Ga]Ga-H3P2O8, [^68Ga]Ga-hydrogen bisphosphate]
SUV ± STD, Adipose (E coli; Adipose): 0.34 ± 0.34 SUV | SUV ± STD, Bladder (E coli; Bladder): 3.11 ± 3.0 SUV | SUV ± STD, Blood (E coli; Blood): 1.83 ± 0.20 SUV | SUV ± STD, Bone (E coli; Bone): 2.73 ± 1.12 SUV | SUV ± STD, Brain (E coli; Brain): 0.81 ± 1.5 SUV | SUV ± STD, Cecum (E coli; Cecum): 1.74 ± 0.55 SUV | SUV ± STD, Eye (E coli; Eye): 3.86 ± 1.71 SUV | SUV ± STD, Feces (E coli; Feces): 0.93 ± 0.43 SUV | SUV ± STD, Gut (E coli; Gut): 1.78 ± 0.10 SUV | SUV ± STD, Heart (E coli; Heart): 0.61 ± 0.14 SUV | SUV ± STD, Infected Thigh (E coli; Infected Thigh): 1.12 ± 0.43 SUV | SUV ± STD, Kidney-1 (E coli; Kidney-1): 3.24 ± 1.19 SUV | SUV ± STD, Kidney-2 (E coli; Kidney-2): 3.28 ± 2.10 SUV | SUV ± STD, Liver (E coli; Liver): 2.02 ± 0.89 SUV | SUV ± STD, Lung-1 (E coli; Lung-1): 2.13 ± 0.54 SUV | SUV ± STD, Lung-2 (E coli; Lung-2): 3.03 ± 0.53 SUV | SUV ± STD, Normal Thigh (E coli; Normal Thigh): 0.25 ± 0.05 SUV | SUV ± STD, Skin (E coli; Skin): 0.88 ± 0.63 SUV | SUV ± STD, Spleen (E coli; Spleen): 0.80 ± 0.69 SUV | SUV ± STD, Stomach (E coli; Stomach): 0.48 ± 0.14 SUV | mean SUV in infected tibia compared with [^68Ga]Ga-Citrate or [^18F]FDG ([1]; MRSA infected tibia, after 60 minutes post injection, PET image analysis (FIG. 26)): significantly higher mean SUV | SUV (Average ± SD), Contralateral Tibia ([1]; n = 5, 15 min post-injection): 0.76 ± 0.17 SUV | SUV (Average ± SD), Infected Tibia ([1]; n = 5, 15 min post-injection): 1.82 ± 0.57 SUV | SUV (Average ± SD), Muscle ([1]; n = 5, 15 min post-injection): 0.59 ± 0.14 SUV | SUV (Average ± SD), Contralateral Tibia ([1]; n = 5, 30 min post-injection): 0.59 ± 0.12 SUV | SUV (Average ± SD), Infected Tibia ([1]; n = 5, 30 min post-injection): 2.40 ± 0.49 SUV | SUV (Average ± SD), Muscle ([1]; n = 5, 30 min post-injection): 0.58 ± 0.20 SUV | SUV (Average ± SD), Contralateral Tibia ([1]; n = 5, 60 min post-injection): 0.60 ± 0.15 SUV | SUV (Average ± SD), Infected Tibia ([1]; n = 5, 60 min post-injection): 2.87 ± 0.66 SUV | SUV (Average ± SD), Muscle ([1]; n = 5, 60 min post-injection): 0.67 ± 0.18 SUV | SUV (Average ± SD), Contralateral Tibia ([1]; n = 5, 120 min post-injection): 0.29 ± 0.18 SUV | SUV (Average ± SD), Infected Tibia ([1]; n = 5, 120 min post-injection): 3.48 ± 0.25 SUV | SUV (Average ± SD), Muscle ([1]; n = 5, 120 min post-injection): 0.76 ± 0.30 SUV | difference in mean SUV between the probes in inflamed tibia [2]: no significant difference | uptake as SUV ratios (Operated tibia/contralateral tibia), MRSA vs P. aeruginosa [3]: significant difference in uptake
